Experimental data: article PMC6222422, “Synthesis and Biological Evaluation of Novel Indole-Derived Thioureas” (Molecules : A Journal of Synthetic Chemistry and Natural …, 2018)
Like-named read-outs stand apart in the source and are kept apart here.

How the values were obtained:
[1] = tested on: HIV-1 A17 (K103N + Y181C mutant); assay: microbe, parasite or virus in culture; format: cell-based, Human Immunodeficiency Virus type-1; conditions: read-out: EC50 A17
[2] = tested on: HIV-1 MDR strain (74V, 41L, 106A, 215Y); assay: microbe, parasite or virus in culture; format: cell-based, Human Immunodeficiency Virus type-1; conditions: read-out: EC50 MDR
HIV-1 [3] = conditions: read-out: EC50 HIV-1
[4] = tested on: HIV-1 AZT^R strain (67N, 70R, 215F, 219Q); assay: microbe, parasite or virus in culture; format: cell-based, Human Immunodeficiency Virus type-1; conditions: read-out: EC50 AZT^R
[5] = tested on: HIV-1 N119 (Y181C mutant); assay: microbe, parasite or virus in culture; format: cell-based, Human Immunodeficiency Virus type-1; conditions: read-out: EC50 N119
[6] = tested on: HIV-1 EFV^R (K103R + V179D + P225H mutant); assay: microbe, parasite or virus in culture; format: cell-based, Human Immunodeficiency Virus type-1; conditions: read-out: EC50 EFV^R
BVDV = assay: microbe, parasite or virus in culture; format: cell-based, bovine viral diarrhoea virus; conditions: Bovine viral diarrhea virus isolates and strains, MDBK, in Bos taurus, read-out: BVDV EC50
Cytotoxicity, MTT method [7] = conditions: African green monkey (Cercopithecus aethiops)
Cytotoxicity, MTT method [8] = conditions: cattle (Bos taurus)
Reo-1 = assay: microbe, parasite or virus in culture; format: cell-based, reovirus type-1; conditions: Reovirus sp., BHK, read-out: Reo-1 EC50
Cytotoxicity, MTT method [9] = conditions: human
HIV-1 [10] = assay: microbe, parasite or virus in culture; conditions: Human immunodeficiency virus 1, MT4, read-out: HIV-1 EC50
CV-B5 = assay: microbe, parasite or virus in culture; format: cell-based, coxsackievirus B5; conditions: Enterovirus B, CVB5, Vero 76, read-out: CV-B5 EC50
VV = assay: microbe, parasite or virus in culture; format: cell-based; conditions: Orthopoxvirus vaccinia, Vero 76, read-out: VV EC50
HSV-1 = assay: microbe, parasite or virus in culture; format: cell-based, human herpes 1; conditions: Human alphaherpesvirus 1, Vero 76, read-out: HSV-1 EC50
RSV = assay: microbe, parasite or virus in culture; format: cell-based, human respiratory syncytial virus; conditions: human respiratory syncytial virus, Vero 76, read-out: RSV EC50
YFV = assay: microbe, parasite or virus in culture; format: cell-based; conditions: Yellow fever virus, BHK, read-out: YFV EC50
BHK cells = assay: Cytotoxicity, MTT method; conditions: read-out: BHK CC50; reduce the proliferation of mock-infected BHK cells by 50% (Table 6)
Cytotoxicity, MTT method [11] = conditions: Syrian hamster (Mesocricetus auratus)
Sb-1 = assay: microbe, parasite or virus in culture; format: cell-based, poliovirus type-1; conditions: Enterovirus C, Vero 76, read-out: Sb-1 EC50
VSV = assay: microbe, parasite or virus in culture; format: cell-based; conditions: Vesicular stomatitis virus, Vero 76, read-out: VSV EC50
WIL-2NS = assay: Cytotoxicity against leukaemia/lymphoma cell lines, MTT; conditions: Homo sapiens, WIL2-NS, 96 h, read-out: CC50 WIL-2NS
in vitro [12] = conditions: African green monkey (Cercopithecus aethiops)
CCRF-SB = assay: Cytotoxicity against leukaemia/lymphoma cell lines, MTT; conditions: Homo sapiens, 96 h, read-out: CC50 CCRF-SB
in vitro [13] = conditions: human
[14] = tested on: cell lines derived from human haematological tumours; assay: Cytotoxicity against cell lines derived from human haematological tumours, MTT; format: cell-based; conditions: CCRF-CEM, WIL-2NS, CCRF-SB, read-out: CC50 range over cell lines derived from human haematological tumours
Description: Cell lines derived from human haematological tumours [CD4+ human acute T-lymphoblastic leukaemia (CCRF-CEM), human splenic B-lymphoblastoid cells (WIL-2NS), human acute B-lymphoblastic leukaemia (CCRF-SB)] were seeded at an initial density of 1 × 10^5 cells/mL in 96 well plates in RPMI-1640 medium supplemented with 10% foetal calf serum (FCS), 100 units/mL penicillin G and 100 μg/mL streptomycin. Cell viability was determined after 96 h at 37 °C by the MTT method. All cell cultures were then incubated at 37 °C in a humidified, 5% CO2 atmosphere, in the absence or presence of serial dilutions of test compounds in culture medium. Before dilutions, compounds were dissolved in DMSO at 100 mM.

CCRF-CEM = assay: Cytotoxicity against leukaemia/lymphoma cell lines, MTT; conditions: Homo sapiens, 96 h, read-out: CC50 CCRF-CEM
in vitro [15] = conditions: cattle (Bos taurus)
in vitro [16] = conditions: Syrian hamster (Mesocricetus auratus)

Cc1cn([C@H]2C[C@H](N=[N+]=[N-])[C@@H](CO)O2)c(=O)[nH]c1=O [AZT]
EC50 [1]: 0.01 ± 0.001 µM
EC50 [2]: 0.08 ± 0.006 µM
EC50 (HIV-1 [3]): 0.022 ± 0.004 µM
CC50 (MT-4 cells): 45 µM
EC50 [4]: 0.35 ± 0.04 µM
EC50 [5]: 0.025 ± 0.004 µM
EC50 [6]: 0.02 ± 0.001 µM

CNC(=S)NCCc1c[nH]c2ccccc12 [Compound 25, 1-(2-(1H-Indol-3-yl)ethyl)-3-methylthiourea]
EC50 (BVDV): > 100 µM
CC50 (Cytotoxicity, MTT method [7]): > 100 µM
CC50 (Cytotoxicity, MTT method [8]): > 100 µM
EC50 (Reo-1): > 100 µM
CC50 (Cytotoxicity, MTT method [9]): > 100 µM
EC50 (HIV-1 [10]): > 100 µM
EC50 (CV-B5): > 100 µM
EC50 (VV): > 100 µM
EC50 (HSV-1): > 100 µM
EC50 (RSV): > 100 µM
EC50 (YFV): > 100 µM
CC50 (BHK cells): > 100 µM
CC50 (Cytotoxicity, MTT method [11]): > 100 µM
EC50 (Sb-1): > 100 µM
EC50 (VSV): > 100 µM

S=C(NCCc1c[nH]c2ccccc12)Nc1ccc(I)cc1 [Compound 21, 1-(2-(1H-Indol-3-yl)ethyl)-3-(4-iodophenyl)thiourea]
CC50 (WIL-2NS): 5.8 ± 1 µM
EC50 (BVDV): > 100 µM
CC50 (in vitro [12]): 11 µM
CC50 (CCRF-SB): 12 ± 1.6 µM
EC50 (Reo-1): > 11 µM
CC50 (in vitro [13]): 2.4 ± 0.2 µM
CC50 [14]: 5 to 12 µM
EC50 (HIV-1 [10]): > 2.4 µM
EC50 (CV-B5): > 11 µM
EC50 (VV): > 11 µM
EC50 (HSV-1): > 11 µM
CC50 (CCRF-CEM): 5 ± 0.8 µM
CC50 (in vitro [15]): > 100 µM
CC50 (in vitro [16]): 11 µM
melting point: 162 to 165 °C
EC50 (RSV): > 11 µM
EC50 (YFV): > 11 µM
EC50 (Sb-1): > 11 µM
EC50 (VSV): > 11 µM

CCNC(=S)NCCc1c[nH]c2ccccc12 [Compound 22, 1-(2-(1H-Indol-3-yl)ethyl)-3-ethylthiourea]
EC50 (BVDV): > 100 µM
CC50 (Cytotoxicity, MTT method [7]): > 100 µM
CC50 (Cytotoxicity, MTT method [8]): > 100 µM
EC50 (Reo-1): > 100 µM
CC50 (Cytotoxicity, MTT method [9]): > 100 µM
EC50 (HIV-1 [10]): > 100 µM
EC50 (CV-B5): > 100 µM
EC50 (VV): > 100 µM
EC50 (HSV-1): > 100 µM
EC50 (RSV): > 100 µM
EC50 (YFV): > 100 µM
CC50 (BHK cells): > 100 µM
CC50 (Cytotoxicity, MTT method [11]): > 100 µM
EC50 (Sb-1): > 100 µM
EC50 (VSV): > 100 µM

COc1cccc2c1C(=O)c1c(O)c3c(c(O)c1C2=O)C[C@@](O)(C(=O)CO)C[C@@H]3O[C@H]1C[C@H](N)[C@H](O)[C@H](C)O1 [Doxorubicin, reference compound]
CC50 (WIL-2NS): 0.02 ± 0.003 µM
CC50 (CCRF-SB): 0.03 ± 0.003 µM
CC50 (CCRF-CEM): 0.02 ± 0.002 µM
